pIC50: −log10 of the molar value. Where a name gives a salt, the structure may show the parent alone.
Legend:
[1] = target: T1, Human fibrinogen receptor IIb/IIIa (Homo sapiens, UniProt P05106+P08514); experiment: Purified IIb/IIIa receptor assay: solid phase receptor assay, competition with biotinylated vitronectin; type: binding; settings: 1 nM biotinylated vitronectin
T1 construct: Human fibrinogen receptor ([…]) was purified from outdated platelets; from tissue; host or cells: outdated human platelets
Excerpt: Purified IIb/IIIa Receptor Assay
Human fibrinogen receptor ([…]) was purified from outdated platelets. (Pytela, R., Pierschbacher, M. D., Argraves, S., Suzuki, S., and Rouslahti, E. “Arginine-Glycine-Aspartic acid adhesion receptors”, Methods in Enzymology 144(1987):475-489.) Human vitronectin was purified from fresh frozen plasma as described in Yatohgo, T., Izumi, M., Kashiwagi, H., and Hayashi, M., “Novel purification of vitronectin from human plasma by heparin affinity chromatography,” Cell Structure and Function 13(1988):281-292. Biotinylated human vitronectin was prepared by coupling NHS-biotin from Pierce Chemical Company (Rockford, Ill.) to purified vitronectin as previously described. (Charo, I. F., Nannizzi, L., Phillips, D. R., Hsu, M. A., Scarborough, R. M., “Inhibition of fibrinogen binding to GP IIb/IIIa by a GP IIIa peptide”, J. Biol. Chem. 266(3)(1991): 1415-1421.) Assay buffer, OPD substrate tablets, and RIA grade BSA were obtained from Sigma (St. Louis, Mo.). Anti-biotin antibody was obtained from Calbiochem (La Jolla, Calif.). Linbro microtiter plates were obtained from Flow Labs (McLean, Vs.). ADP reagent was obtained from Sigma (St. Louis, Mo.).
This assay is essentially the same reported in Niiya, K., Hodson, E., Bader, R., Byers-Ward, V. Koziol, J. A., Plow, E. F. and Ruggeri, Z. M., “Increased surface expression of the membrane glycoprotein IIb/IIIa complex induced by platelet activation: Relationships to the binding of fibrinogen and platelet aggregation”, Blood 70(1987):475-483. The purified human fibrinogen receptor ([…]) was diluted from stock solutions to 1.0 μg/mL in Tris-buffered saline containing 1.0 mM Ca^++, Mg^++, and Mn^++, pH 7.4 (TBS^+++). The diluted receptor was immediately transferred to Linbro microtiter plates at 100 μL/well (100 ng receptor/well). The plates were sealed and incubated overnight at 4° C. to allow the receptor to bind to the wells. All remaining Steps were at room temperature. The assay plates were emptied and 200 μL of 1% RIA grade BSA in TBS^+++ (TBS^+++/BSA) were added to block exposed plastic surfaces. Following a 2 hour incubation, the assay plates were washed with TBS^+++ using a 96 well plate washer. Logarithmic serial dilution of the test compound and controls were made starting at a stock concentration of 2 mM and using 2 nM biotinylated vitronectin in TBS^+++/BSA as the diluent. This premixing of labeled ligand with test (or control) ligand, and subsequent transfer of 50 μL aliquots to the assay plate was carried out with a CETUS Propette robot; the final concentration of the labeled ligand was 1 nM and the highest concentration of test compound was 1.0×10^−4 M. The competition occurred for two hours after which all wells were washed with a plate washer as before. Affinity purified horseradish peroxidase labeled goat anti-biotin antibody was diluted 1:3000 in TBS^+++/BSA and 125 μL were added to each well. After 30 minutes, the plates were washed and incubated with […] substrate in 100 mM/L citrate buffer, pH 5.0. The plate was read with a microtiter plate reader at a wavelength of 450 nm and when the maximum-binding control wells reached an absorbance of about 1.0, the final A450 were recorded for analysis. The data were analyzed using a macro written for use with the EXCELJ spreadsheet program. The mean, standard deviation, and % CV were determined for duplicate concentrations. The mean A450 values were normalized to the mean of four maximum-binding controls (no competitor added)(B-MAX). The normalized values were subjected to a four parameter curve fit algorithm, [Robard et al., Int. Atomic Energy Agency.

[2] = target: T2, Human vitronectin receptor (αvβ3) (Homo sapiens, UniProt P05106+P06756); experiment: Vitronectin adhesion assay: solid phase receptor assay, competition with biotinylated vitronectin; type: binding; settings: purified human vitronectin receptor; 1 nM biotinylated vitronectin
T2 construct: Human vitronectin receptor (αvβ3) was purified from human placenta; from tissue; host or cells: human placenta
Method: Vitronectin Adhesion Assay
Human vitronectin receptor (αvβ3) was purified from human placenta as previously described [Pytela et al., Methods in Enzymology, 144:475-489 (1987)]. Human vitronectin was purified from fresh frozen plasma as previously described [Yatohgo et al., Cell Structure and Function, 13:281-292 (1988)]. Biotinylated human vitronectin was prepared by coupling NHS-biotin from Pierce Chemical Company (Rockford, Ill.) to purified vitronectin as previously described [Charo et al., J. Biol. Chem., 266(3):1415-1421 (1991)]. Assay buffer, OPD substrate tablets, and RIA grade BSA were obtained from Sigma (St. Louis, Mo.). Anti-biotin antibody was obtained from Calbiochem (La Jolla, Calif.). Linbro microtiter plates were obtained from Flow Labs (McLean, Va.). ADP reagent was obtained from Sigma (St. Louis, Mo.).
This assay was essentially the same as previously reported [Niiya et al., Blood, 70:475-483 (1987)]. The purified human vitronectin receptor (αvβ3) was diluted from stock solutions to 1.0 μg/mL in Tris-buffered saline containing 1.0 mM Ca^++, Mg^++, and Mn^++, pH 7.4 (TBS^+++). The diluted receptor was immediately transferred to Linbro microtiter plates at 100 μL/well (100 ng receptor/well). The plates were sealed and incubated overnight at 4° C. to allow the receptor to bind to the wells. All remaining steps were at room temperature. The assay plates were emptied and 200 μL of 1% RIA grade BSA in TBS^+++ (TBS^+++/BSA) were added to block exposed plastic surfaces. Following a 2 hour incubation, the assay plates were washed with TBS^+++ using a 96 well plate washer. Logarithmic serial dilution of the test compound and controls were made starting at a stock concentration of 2 mM and using 2 nM biotinylated vitronectin in TBS^+++/BSA as the diluent. This premixing of labeled ligand with test (or control) ligand, and subsequent transfer of 50 μL aliquots to the assay plate was carried out with a CETUS Propette robot; the final concentration of the labeled ligand was 1 nM and the highest concentration of test compound was 1.0×10^−4 M. The competition occurred for two hours after which all wells were washed with a plate washer as before. Affinity purified horseradish peroxidase labeled goat anti-biotin antibody was diluted 1:3000 in TBS^+++/BSA and 125 μL were added to each well. After 30 minutes, the plates were washed and incubated with OPD/H2O2 substrate in 100 mM/L Citrate buffer, pH 5.0. The plate was read with a microtiter plate reader at a wavelength of 450 nm and when the maximum-binding control wells reached an absorbance of about 1.0, the final A450 were recorded for analysis. The data were analyzed using a macro written for use with the EXCELJ spreadsheet program. The mean, standard deviation, and % CV were determined for duplicate concentrations. The mean A450 values were normalized to the mean of four maximum-binding controls (no competitor added)(B-MAX). The normalized values were subjected to a four parameter curve fit algorithm [Rodbard et al., Int.

pIC50 [1]	pIC50 [2]	SMILES
5.00	5.44	O=C(O)CC(NC(=O)CNC(=O)c1cc(N=C2NCCN2)c[nH]c1=O)c1cc(Cl)cc(Cl)c1O (stereo not drawn) [Example 23, N-[[5-(4,5,-dihydro-1H-imidazol-2-yl)amino]-1,2-dihydro-2-oxo-3-pyridinyl]-carbonyl]glycyl-3-(3,5-dichloro-2-hydroxyphenyl)-β-alanine, (trifluoroacetate) salt]
5.23	8.51	O=C(O)C[C@H](NC(=O)CNC(=O)c1cc(NC2=NCC(O)CN2)[nH]c(=O)c1)c1cc(Cl)cc(Cl)c1O (some centres unmarked) [Example 42]
5.60	8.53	O=C(O)CC(NC(=O)CNC(=O)c1cnc(Cl)c(NC2=NCCN2)c1)c1cc(Cl)cc(Cl)c1O (stereo not drawn) [Example 19, N-[[6-chloro-5-[(4,5,-dihydro-1H-imidazol-2-yl)amino]-3-pyridinyl]carbonyl]-glycyl-3-(3,5-dichloro-2-hydroxyphenyl)-β-alanine, (trifluoroacetate) salt, monohydrate]
4.45	7.99	O=C(O)C[C@@H](NC(=O)CNC(=O)c1c[nH]c(=O)c(NC2=NCC(O)CN2)c1)c1cc(Cl)cc(Cl)c1O (some centres unmarked) [Example 41]
5.86	9.34	O=C(O)CC(NC(=O)CNC(=O)c1c[nH]c(=O)c(NC2=NCC(O)CN2)c1)c1cc(Br)cc(Br)c1O (centres unmarked) [Example 29]
6.61	9.74	O=C(O)C[C@H](NC(=O)CNC(=O)c1cncc(N=C2NCC(O)CN2)c1)c1cc(Cl)cc(Br)c1O (some centres unmarked) [Example 9]
6.53	9.39	O=C(O)CC(NC(=O)CNC(=O)c1cncc(NC2=NCCN2)c1)c1cc(Cl)cc(Cl)c1O (centres unmarked) [Example 3]
6.94	6.56	Cn1cc(NC2=NCC(O)CN2)cc1C(=O)NCC(=O)N[C@@H](CC(=O)O)c1cc(Cl)cc(Cl)c1O (some centres unmarked) [Example 38]
6.57	7.20	O=C(O)C[C@H](NC(=O)CNC(=O)c1csc(NC2=NCC(O)CN2)c1)c1cc(Cl)cc(Cl)c1O (some centres unmarked) [Example 37]
6.01	9.37	COCCOCn1cc(C(=O)NCC(=O)NC(CC(=O)O)c2cc(Br)cc(Br)c2O)cc(NC2=NCC(O)CN2)c1=O (centres unmarked) [Example 28]
5.69	9.49	O=C(O)CC(NC(=O)CNC(=O)c1c[nH]c(=O)c(NC2=NCCN2)c1)c1cc(Cl)cc(Cl)c1O (stereo not drawn) [Example 20, N-[[5-[(4,5,-dihydro-1H-imidazol-2-yl)amino]-1,6-dihydro-6-oxo-3-pyridinyl]-carbonyl]glycyl-3-(3,5-dichloro-2-hydroxyphenyl)-β-alanine, (trifluoroacetate) salt]
5.41	5.73	O=C(O)CC(NC(=O)CNC(=O)c1cc(NC2=NCCN2)[nH]n1)c1cc(Cl)cc(Cl)c1O (stereo not drawn) [Example 25, N-[[5-[(4,5-dihydro-1H-imidazol-2-yl)amino]-1H-pyrazol-3-yl]carbonyl]-glycyl-3-(3,5-dichloro-2-hydroxyphenyl)-β-alanine, (trifluoroacetate) salt]
6.35	8.35	O=C(O)C[C@H](NC(=O)CNC(=O)c1cc(NC2=NCC(O)CN2)cs1)c1cc(Cl)cc(Cl)c1O (stereo partly drawn) [Example 12, (3S)-N-[[4-[(1,4,5,6-tetrahydro-5-hydroxy-2-pyrimidinyl)amino]-2-thienyl]carbonyl]glycyl-3-(3,5-dichloro-2-hydroxyphenyl)-β-alanine, trifluoroacetate salt]
5.97	7.38	Nc1ncc(C(=O)NCC(=O)NC(CC(=O)O)c2cc(Cl)cc(Cl)c2O)cc1NC1=NCC(O)CN1 (centres unmarked) [Example 44]
6.34	9.47	O=C(O)C[C@H](NC(=O)CNC(=O)c1cncc(N=C2NCC(O)CN2)c1)c1cc(Br)cc(Br)c1O (some centres unmarked) [Example 11]
4.55	8.37	O=C(O)C[C@@H](NC(=O)CNC(=O)c1c[nH]c(=O)c(NC2=NCCN2)c1)c1cc(Cl)cc(Cl)c1O [Example 48]
6.50	8.80	N=C(N)Nc1cncc(C(=O)NCC(=O)NC(CC(=O)O)c2cc(Cl)cc(Br)c2O)c1 (centres unmarked) [Example 1]
5.92	9.47	O=C(O)C[C@H](NC(=O)CNC(=O)c1c[nH]c(=O)c(NC2=NCC(O)CN2)c1)c1cc(Br)cc(Cl)c1O (some centres unmarked) [Example 34]
6.11	8.03	O=C(O)CC(NC(=O)CNC(=O)c1cc(NC2=NCCN2)cs1)c1cc(Cl)cc(Cl)c1O (stereo not drawn) [Example 13, N-[[4-[(4,5-dihydro-1H-imidazol-2-yl)amino]-2-thienyl]carbonyl]glycyl-3-(3,5-dichloro-2-hydroxyphenyl)-β-alanine, trifluoroacetate salt]
6.32	9.59	COc1ncc(C(=O)NCC(=O)N[C@@H](CC(=O)O)c2cc(Cl)cc(Cl)c2O)cc1NC1=NCC(O)CN1 (some centres unmarked) [Example 27]
5.21	4.66	O=C(O)CC(NC(=O)CNC(=O)c1ccc(NC2=NCCN2)s1)c1cc(Cl)cc(Cl)c1O (stereo not drawn) [Example 16, N-[[5-(4,5,-dihydro-1H-imidazol-2-yl)amino]-2-thienyl]carbonyl]glycyl]-3-(3,5-dichloro-2-hydroxyphenyl)-β-alanine, trifluoroacetate salt]
5.90	9.57	O=C(O)CC(NC(=O)CNC(=O)c1cncc(NC2=NCCCN2)c1)c1cc(Cl)cc(Cl)c1O (centres unmarked) [Example 6]
